According to ChEMBL document CHEMBL6092202, “4-Anilinoquinazoline Derivatives as the First Potent NOD1-RIPK2 Signaling Pathway Inhibitors at the Nanomolar Range” (J Med Chem, 2024):
Converted amounts (≈) assume the structure as drawn. The source made the active and inactive calls. No cut-off for these calls is given here.

What was measured:
[1] = molecular target: Nucleotide-binding oligomerization domain-containing protein 2 (Homo sapiens, UniProt Q9HC29); test: (§1) Inhibition of human NOD2 expressed in HEK-Blue hNOD2 cells coexpressing NF-kappaB-inducible SEAP reporter gene assessed as inhibition of NF-kappaB transcriptional activity by measuring decrease in SEAP activity preincubated for 30 mins followed by C12-iE-DAP addition and measured after 18 hrs by absorbance based spectrophotometric analysis; type: cell-based
Nucleotide-binding oligomerization domain-containing protein 2, sequence (Q9HC29 whole entry, the tested form may be a part): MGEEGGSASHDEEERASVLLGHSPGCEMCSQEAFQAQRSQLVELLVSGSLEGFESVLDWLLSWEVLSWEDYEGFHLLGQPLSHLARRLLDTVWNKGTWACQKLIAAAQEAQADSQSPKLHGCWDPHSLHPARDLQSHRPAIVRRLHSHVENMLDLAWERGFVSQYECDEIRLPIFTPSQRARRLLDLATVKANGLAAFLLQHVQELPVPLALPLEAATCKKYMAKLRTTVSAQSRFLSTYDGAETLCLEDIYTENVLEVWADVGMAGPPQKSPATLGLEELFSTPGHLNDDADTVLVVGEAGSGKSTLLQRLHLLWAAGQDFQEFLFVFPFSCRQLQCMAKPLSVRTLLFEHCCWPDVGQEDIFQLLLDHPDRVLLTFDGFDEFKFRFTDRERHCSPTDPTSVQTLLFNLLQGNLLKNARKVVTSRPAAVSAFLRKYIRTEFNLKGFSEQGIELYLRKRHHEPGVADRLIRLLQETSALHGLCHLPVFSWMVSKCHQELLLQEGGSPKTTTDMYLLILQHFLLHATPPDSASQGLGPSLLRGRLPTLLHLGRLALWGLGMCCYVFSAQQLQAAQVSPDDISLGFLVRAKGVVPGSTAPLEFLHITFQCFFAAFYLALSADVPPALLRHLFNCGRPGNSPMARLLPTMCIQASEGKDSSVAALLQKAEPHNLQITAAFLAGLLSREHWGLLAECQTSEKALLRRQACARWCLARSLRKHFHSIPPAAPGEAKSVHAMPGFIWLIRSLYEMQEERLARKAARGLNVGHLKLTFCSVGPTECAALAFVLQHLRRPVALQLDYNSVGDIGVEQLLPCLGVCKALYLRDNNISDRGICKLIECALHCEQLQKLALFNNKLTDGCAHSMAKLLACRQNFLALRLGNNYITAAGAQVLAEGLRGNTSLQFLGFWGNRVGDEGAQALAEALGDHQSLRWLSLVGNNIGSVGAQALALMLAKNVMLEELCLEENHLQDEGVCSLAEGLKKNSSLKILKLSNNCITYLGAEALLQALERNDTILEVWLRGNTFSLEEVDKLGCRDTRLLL

[2] = molecular target: T1, Nucleotide-binding oligomerization domain-containing protein 1 (Homo sapiens, UniProt Q9Y239); test: as §1, with “NOD1” for “NOD2”, “hNOD1” for “hNOD2”; type: cell-based
T1 sequence (Q9Y239 whole entry): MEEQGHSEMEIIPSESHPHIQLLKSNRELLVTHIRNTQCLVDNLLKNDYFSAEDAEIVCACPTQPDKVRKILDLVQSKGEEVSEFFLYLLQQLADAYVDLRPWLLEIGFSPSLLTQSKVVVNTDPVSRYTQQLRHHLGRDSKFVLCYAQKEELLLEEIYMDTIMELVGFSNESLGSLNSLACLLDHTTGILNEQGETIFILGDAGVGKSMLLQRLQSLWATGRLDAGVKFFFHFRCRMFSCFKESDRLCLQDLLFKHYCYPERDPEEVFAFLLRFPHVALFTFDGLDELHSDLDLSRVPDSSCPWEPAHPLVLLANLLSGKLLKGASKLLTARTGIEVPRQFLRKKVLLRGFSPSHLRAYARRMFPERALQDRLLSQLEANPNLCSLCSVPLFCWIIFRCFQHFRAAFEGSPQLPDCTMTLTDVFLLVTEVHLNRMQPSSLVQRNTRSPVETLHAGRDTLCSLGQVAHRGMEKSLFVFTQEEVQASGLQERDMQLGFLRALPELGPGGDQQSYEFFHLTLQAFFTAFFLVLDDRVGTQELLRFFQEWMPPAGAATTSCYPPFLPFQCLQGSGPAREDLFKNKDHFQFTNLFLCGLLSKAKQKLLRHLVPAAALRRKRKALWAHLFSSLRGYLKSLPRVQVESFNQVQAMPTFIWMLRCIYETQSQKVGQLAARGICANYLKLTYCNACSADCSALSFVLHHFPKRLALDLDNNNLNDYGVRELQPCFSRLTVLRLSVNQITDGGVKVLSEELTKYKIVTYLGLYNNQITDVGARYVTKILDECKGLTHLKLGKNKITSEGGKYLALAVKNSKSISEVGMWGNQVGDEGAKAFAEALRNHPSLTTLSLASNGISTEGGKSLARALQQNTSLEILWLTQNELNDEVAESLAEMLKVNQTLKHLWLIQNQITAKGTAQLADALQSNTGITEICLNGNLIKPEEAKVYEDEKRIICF

[3] = Inhibition of recombinant VEGFR (unknown origin) using PGT as substrate preincubated for 10 mins followed by substrate addition and measured after 1 hr by ADP-Glo luminescence assay; set-up: species or system Homo sapiens
[4] = molecular target: Epidermal growth factor receptor (Homo sapiens, UniProt P00533); test: Inhibition of recombinant EGFR (unknown origin) using PGT as substrate preincubated for 10 mins followed by substrate addition and measured after 1 hr in presence of ATP by ADP-Glo luminescence assay
Epidermal growth factor receptor, sequence (P00533 whole entry): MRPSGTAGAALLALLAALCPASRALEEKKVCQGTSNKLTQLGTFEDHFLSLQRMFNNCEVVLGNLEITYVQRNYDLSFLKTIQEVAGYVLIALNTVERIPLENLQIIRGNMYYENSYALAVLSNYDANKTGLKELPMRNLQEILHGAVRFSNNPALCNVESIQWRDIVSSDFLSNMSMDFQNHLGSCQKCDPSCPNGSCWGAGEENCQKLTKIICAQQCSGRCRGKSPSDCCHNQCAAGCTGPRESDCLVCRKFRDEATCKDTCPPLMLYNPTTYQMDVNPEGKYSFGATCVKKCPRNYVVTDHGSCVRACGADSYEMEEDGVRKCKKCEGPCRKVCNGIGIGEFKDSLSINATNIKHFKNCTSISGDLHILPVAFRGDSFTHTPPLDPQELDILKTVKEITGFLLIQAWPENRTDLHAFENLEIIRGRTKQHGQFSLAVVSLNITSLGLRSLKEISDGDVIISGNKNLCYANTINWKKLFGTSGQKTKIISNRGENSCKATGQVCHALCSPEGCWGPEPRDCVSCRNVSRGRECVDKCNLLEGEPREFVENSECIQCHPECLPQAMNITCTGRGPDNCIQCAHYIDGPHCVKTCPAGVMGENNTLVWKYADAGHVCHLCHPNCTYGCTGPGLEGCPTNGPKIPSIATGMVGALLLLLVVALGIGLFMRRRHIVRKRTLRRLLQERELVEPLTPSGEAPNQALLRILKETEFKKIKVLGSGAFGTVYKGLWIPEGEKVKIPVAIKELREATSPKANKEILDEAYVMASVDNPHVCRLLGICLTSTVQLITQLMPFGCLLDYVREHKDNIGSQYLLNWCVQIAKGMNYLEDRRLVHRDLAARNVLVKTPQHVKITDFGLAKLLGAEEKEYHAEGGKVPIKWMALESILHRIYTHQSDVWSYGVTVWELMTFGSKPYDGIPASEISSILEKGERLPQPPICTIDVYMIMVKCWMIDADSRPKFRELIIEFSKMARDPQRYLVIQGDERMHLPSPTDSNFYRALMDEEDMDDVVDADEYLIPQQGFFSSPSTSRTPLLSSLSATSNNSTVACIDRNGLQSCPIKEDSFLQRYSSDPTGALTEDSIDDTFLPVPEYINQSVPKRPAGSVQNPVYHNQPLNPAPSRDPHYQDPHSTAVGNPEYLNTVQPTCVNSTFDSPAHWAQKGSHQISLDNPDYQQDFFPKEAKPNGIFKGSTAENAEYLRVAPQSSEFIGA

[5] = Solubility of the compound in PBS buffer at pH 7.4; type: physicochemical
[6] = Stability in plasma (unknown origin) assessed as half life; type: ADME, cell-free
[7] = Lipophilicity, logD of compound at pH 7.4; type: physicochemical; settings: buffer
[8] = Metabolic stability in liver microsomes (unknown origin) assessed as half life; type: ADME, Microsome
[9] = Metabolic stability in liver microsomes (unknown origin) assessed as intrinsic clearance; type: ADME, Microsome; settings: read-out: CLH
[10] = Cytotoxicity against HEK-Blue hNOD1 cells assessed as reduction in cell viability at 1 uM measured after 72 hrs by celltiter 96 aqueous one solution cell proliferation assay; type: toxicity, cell-based; settings: human, hek-blue hnod1, 72 h
Huh-7 = test: Cytotoxicity against human Huh-7 cells assessed as reduction in cell viability at 1 uM measured after 72 hrs by celltiter 96 aqueous one solution cell proliferation assay; type: toxicity, cell-based; settings: huh-7, 72 h
[11] = Cytotoxicity against human THP1-Blue NF-kappaB cells assessed as reduction in cell viability at 1 uM measured after 72 hrs by celltiter 96 aqueous one solution cell proliferation assay; type: toxicity, cell-based
[12] = molecular target: Receptor-interacting serine/threonine-protein kinase 2 (Homo sapiens, UniProt O43353); test: Inhibition of human recombinant RIPK2 (1 to 317 residues) expressed in Sf21 insect cells using MBP as substrate preincubated for 10 mins followed by substrate addition and measured after 1 hr by ADP-Glo luminescence assay
Receptor-interacting serine/threonine-protein kinase 2, sequence (O43353 whole entry, the tested form may be a part): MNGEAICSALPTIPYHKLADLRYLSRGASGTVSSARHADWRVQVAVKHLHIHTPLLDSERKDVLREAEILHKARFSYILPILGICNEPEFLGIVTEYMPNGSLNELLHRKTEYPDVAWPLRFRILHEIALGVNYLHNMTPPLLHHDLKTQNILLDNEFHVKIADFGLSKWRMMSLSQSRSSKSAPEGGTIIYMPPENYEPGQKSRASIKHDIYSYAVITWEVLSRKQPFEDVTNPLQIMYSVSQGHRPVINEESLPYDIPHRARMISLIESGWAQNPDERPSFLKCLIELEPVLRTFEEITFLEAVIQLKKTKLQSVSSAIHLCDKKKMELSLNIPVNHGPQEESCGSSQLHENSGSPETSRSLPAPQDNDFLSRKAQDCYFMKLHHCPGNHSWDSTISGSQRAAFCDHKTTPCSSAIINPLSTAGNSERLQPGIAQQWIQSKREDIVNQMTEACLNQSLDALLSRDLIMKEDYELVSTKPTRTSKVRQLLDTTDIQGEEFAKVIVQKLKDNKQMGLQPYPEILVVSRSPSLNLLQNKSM

HEK-Blue hNOD1 = test: Anti-inflammatory activity in HEK-Blue hNOD1 cells assessed as reduction in C12-iE-DAP stimulated IL-8 secretion at 0.01 to 1 uM preincubated for 1 hr followed by C12-iE-DAP addition and measured after 22 hrs by fluorescence based analysis; type: functional, cell-based; settings: Homo sapiens, dose 0.01-1 µM, time 23.0 hrs

Structure (SMILES)	IC50 [1]	IC50 [2]	also measured
CCN(CC)CCOc1ccc2c(Nc3cc(OC)c(Cl)cc3Cl)ncnc2c1	> 10000 nM		
COc1cc2ncnc(Nc3cc(N)ccn3)c2cc1OC	> 10000 nM		
COc1cc2ncnc(Nc3cccc(O)c3)c2cc1OC	> 10000 nM	157 nM	
CCN(CC)CCOc1cc2ncnc(Nc3cc(OC)c(Cl)cc3Cl)c2cc1OC	> 10000 nM	42 nM	IC50 [3]: > 1000 nM; IC50 [4]: > 1000 nM; solubility [5]: 31 µM (≈ 14.4 µg/mL); half-life [6]: > 6 h; logD [7]: 0.88; half-life [8]: > 0.667 h; microsomal CLint [9]: 29 µL/min/mg; Activity [10]: Non-toxic; Activity (Huh-7): Non-toxic; Activity [11]: Non-toxic
COc1cc2ncnc(Nc3ccc(F)c(Cl)c3)c2cc1OCCCN1CCOCC1 [GEFITINIB]	1080 nM	605 nM	Activity [10]: Non-toxic; Activity (Huh-7): Non-toxic; Activity [11]: Non-toxic
COc1cc2ncnc(Nc3ccc4scnc4c3)c2cc1OC.Cl	> 10000 nM		IC50 [4]: 36 nM; Activity [10]: Non-toxic; Activity (Huh-7): Non-toxic; Activity [11]: Non-toxic
COc1cc(Nc2ncnc3cc(OC)c(OC)cc23)c(F)cc1Br	> 10000 nM		
COc1cc2ncnc(Nc3ccc(Cl)c(Cl)c3)c2cc1OC	> 10000 nM		
COc1cc2ncnc(Nc3ccc(Cl)cc3Cl)c2cc1OC	> 10000 nM	> 10000 nM	
COc1cc2ncnc(Nc3cccc(N)c3)c2cc1OC	> 10000 nM	> 10000 nM	
COc1cc2ncnc(-n3nc(N)c4cc(F)ccc43)c2cc1OC	> 10000 nM		
Cc1ccc(S(=O)(=O)n2c(N)nc3ccccc32)cc1	> 10000 nM		IC50 [12]: > 1000 nM; Activity (HEK-Blue hNOD1): inactive
COc1cc2ncnc(Nc3ccc(Cl)cc3)c2cc1OC	> 10000 nM	283 nM	
COc1cc2ncnc(Nc3ccc(Br)c(O)c3)c2cc1OC	> 10000 nM		
COc1cc(Nc2ncnc3cc(OC)c(OC)cc23)ccc1Cl	> 10000 nM		
CCN(CC)CCOc1cc2c(Nc3cc(OC)c(Cl)cc3Cl)ncnc2cc1OC	> 10000 nM		
COc1cc2ncnc(Nc3cc(Br)ccc3Br)c2cc1OC	> 10000 nM		

Structure (SMILES)	IC50 [1]	IC50 [2]	also measured
COc1cc(Nc2ncnc3cc(OC)c(OC)cc23)c(Cl)cc1Cl	> 10000 nM		IC50 [4]: 61.3 nM; Activity [10]: Non-toxic; Activity (Huh-7): Non-toxic; Activity [11]: Non-toxic
COc1cc2ncnc(Nc3ccc(F)c(Cl)c3)c2cc1OC	> 10000 nM	1340 nM	
CCCS(=O)(=O)Nc1cc(-c2cc(-c3ccc(N4CCNCC4)cc3)cnc2N)cc(F)c1OC	219 nM		IC50 [12]: 1.93 nM
COc1cc2ncnc(Nc3ccccc3)c2cc1OC	> 10000 nM	> 10000 nM	
COc1cc2ncnc(Nc3n[nH]c(C)c3C)c2cc1OC	> 10000 nM	> 10000 nM	
COc1ccc(Cl)c(Nc2ncnc3cc(OC)c(OC)cc23)c1	> 10000 nM	686 nM	
COc1cc2ncnc(Nc3ccc(Cl)c(O)c3)c2cc1OC.Cl	> 10000 nM	33 nM	IC50 [3]: 1.39 nM; IC50 [4]: 0.84 nM; Activity [10]: Non-toxic; Activity (Huh-7): Non-toxic; Activity [11]: Non-toxic
COc1cc2ncnc(Nc3ccc(Br)cc3F)c2cc1OC	> 10000 nM	549 nM	
COc1cc2ncnc(Nc3cc(O)c(Cl)cc3Cl)c2cc1OC	> 10000 nM	> 10000 nM	
COc1cc2ncnc(Nc3cccc(Cl)c3)c2cc1OC	> 10000 nM	> 10000 nM	
COc1cc2ncnc(Nc3n[nH]c4ccc(F)cc34)c2cc1OC	> 10000 nM		
COc1cc2ncnc(Nc3ccncc3)c2cc1OC	> 10000 nM		
COCCOc1cc2ncnc(Nc3cc(OC)c(Cl)cc3Cl)c2cc1OCCOC	> 10000 nM		
COc1cc(Nc2ncnc3c(OC)c(OC)c(OC)cc23)c(Cl)cc1Cl	> 10000 nM		
COc1cc2ncnc(Nc3ccc(Cl)c(N)c3)c2cc1OC	> 10000 nM		IC50 [4]: 0.46 nM; Activity [10]: Non-toxic; Activity (Huh-7): Non-toxic; Activity [11]: Non-toxic
COc1cc2ncnc(Nc3ccccc3Cl)c2cc1OC	> 10000 nM		
COc1cc2ncnc(Nc3ccc(F)c(O)c3)c2cc1OC	> 10000 nM		IC50 [3]: 3.02 nM; IC50 [4]: 2.55 nM; Activity [10]: Non-toxic; Activity (Huh-7): Non-toxic; Activity [11]: Non-toxic
